According to ChEMBL document CHEMBL5126548, “Small-molecule MDM2 inhibitors in clinical trials for cancer therapy” (Eur J Med Chem, 2022):

What was measured:
[1] = Cmax in CB17SCID mouse at 125 mg/kg, po and measured upto 24 hrs; assay type: ADME, organism-based; design: dose 125 mg/kg, time < 24 hrs, route po; conditions: in vivo
[2] = AUC in CB17SCID mouse at 125 mg/kg, po and measured upto 24 hrs; assay type: ADME, organism-based; design: dose 125 mg/kg, time < 24 hrs, route po; conditions: in vivo
[3] = molecular target: Tumour suppressor p53/oncoprotein Mdm2 (Homo sapiens, UniProt Q00987); experiment: Inhibition of recombinant human MDM2/p53 interaction; assay type: protein assay
Chain of Tumour suppressor p53/oncoprotein Mdm2 (P04637 whole entry): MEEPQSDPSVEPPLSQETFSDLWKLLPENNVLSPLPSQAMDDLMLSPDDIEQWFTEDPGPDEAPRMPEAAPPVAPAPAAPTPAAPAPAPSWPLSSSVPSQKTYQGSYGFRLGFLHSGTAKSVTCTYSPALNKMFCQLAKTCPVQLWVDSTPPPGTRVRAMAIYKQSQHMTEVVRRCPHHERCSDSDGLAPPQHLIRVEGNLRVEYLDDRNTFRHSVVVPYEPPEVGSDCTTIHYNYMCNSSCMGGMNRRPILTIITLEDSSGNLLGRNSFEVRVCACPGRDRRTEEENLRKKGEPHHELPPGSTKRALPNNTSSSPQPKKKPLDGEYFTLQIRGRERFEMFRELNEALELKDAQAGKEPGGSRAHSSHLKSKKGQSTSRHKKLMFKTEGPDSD
Chain of Tumour suppressor p53/oncoprotein Mdm2 (Q00987 whole entry): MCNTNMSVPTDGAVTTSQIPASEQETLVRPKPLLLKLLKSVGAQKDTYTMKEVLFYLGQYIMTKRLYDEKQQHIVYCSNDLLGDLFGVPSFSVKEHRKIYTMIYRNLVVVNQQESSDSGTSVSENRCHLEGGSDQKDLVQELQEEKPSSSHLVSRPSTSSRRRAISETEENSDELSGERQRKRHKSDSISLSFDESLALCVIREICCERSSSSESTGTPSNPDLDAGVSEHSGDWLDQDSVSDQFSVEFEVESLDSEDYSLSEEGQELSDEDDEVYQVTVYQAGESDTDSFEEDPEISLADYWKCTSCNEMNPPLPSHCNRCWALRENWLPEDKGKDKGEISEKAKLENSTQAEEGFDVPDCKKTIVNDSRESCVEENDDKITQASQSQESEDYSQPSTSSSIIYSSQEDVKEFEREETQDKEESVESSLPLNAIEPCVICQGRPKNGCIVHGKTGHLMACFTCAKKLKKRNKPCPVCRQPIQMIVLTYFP

SH-SY5Y = experiment: Antiproliferative activity against human SH-SY5Y cells harboring wildtype TP53 assessed as reduction in cell viability and measured upto 72 hrs by XTT assay; assay type: functional, cell-based
IMR-5 = experiment: Antiproliferative activity against human IMR-5 cells harboring wildtype TP53 assessed as reduction in cell viability and measured upto 72 hrs by XTT assay; assay type: functional, cell-based; conditions: IMR-5, 72 h
[4] = Antiproliferative activity against human LA-N-5 cells harboring wildtype TP53 assessed as reduction in cell viability and measured upto 72 hrs by XTT assay; assay type: functional, cell-based; conditions: LA-N-5, 72 h
SK-N-SH = experiment: Antiproliferative activity against human SK-N-SH cells harboring wildtype TP53 assessed as reduction in cell viability and measured upto 72 hrs by XTT assay; assay type: functional, cell-based
[5] = Antiproliferative activity against human Kelly cells harboring TP53 mutant assessed as reduction in cell viability and measured upto 72 hrs by XTT assay; assay type: functional, cell-based
IMR-32 = experiment: Antiproliferative activity against human IMR-32 cells harboring wildtype TP53 assessed as reduction in cell viability and measured upto 72 hrs by XTT assay; assay type: functional, cell-based; conditions: IMR-32, 72 h
[6] = Oral bioavailability in Sprague-Dawley rat at 2 mg/kg by LC-MS/MS method; assay type: ADME, organism-based; conditions: in vivo
[7] = Oral bioavailability in CD-1 mouse at 5 mg/kg by LC-MS/MS method; assay type: ADME, organism-based; conditions: in vivo
[8] = Oral bioavailability in Beagle dog at 2 mg/kg by LC-MS/MS method; assay type: ADME, organism-based, Canis lupus familiaris; conditions: in vivo
[9] = Oral bioavailability in cynomolgus monkey at 2 mg/kg by LC-MS/MS method; assay type: ADME, organism-based, Macaca fascicularis; conditions: in vivo
SJSA-1 = experiment: animal or person; conditions: Mus musculus, SJSA-1, po, read-out: TGI
Description: Antitumor activity against human SJSA-1 xenografted Balb/c mouse assessed as tumor growth inhibition at 50 mg/kg,po administered daily by caliper method

animal or person = conditions: Homo sapiens, MHM, po, read-out: TGI
Description: Antitumor activity against human MHM xenografted Balb/c mouse assessed as tumor growth inhibition at 50 mg/kg,po administered daily by caliper method

Which results are given for `CCC[C@H]1N(C(=O)c2ncccc2C(F)(F)F)CCC[C@@]1(Oc1csc(C(F)(F)F)c1)C(=O)N1CCC(O)(c2ccccc2O[C@H](C)CCC2(C(=O)O)CCC2)CC1`?
Cmax [1]: 40 µM; AUC at 24 h [2]: 200 µM·h

For `COc1ccccc1-n1nc2c(c1C(C)C)[C@H](c1ccc(Cl)cc1C)N(c1cc(Cl)cc(OCCN(C)C)c1)C2=O`, which IC50 [3] is on record?
The IC50 was 0.13 nM.

For `CC1(C)CCC2(CC1)N[C@H](C(=O)N[C@@H]1CC[C@@H](C(N)=O)OC1)[C@H](c1ccnc(Cl)c1F)[C@]21C(=O)Nc2cc(Cl)ccc21`, which IC50 (SH-SY5Y) is on record?
The IC50 was 17.7 nM.

And the IC50 (IMR-5)?
Its IC50 is 25.7 nM.

And the IC50 [4]?
Its IC50 is 44.1 nM.

And the IC50 (SK-N-SH)?
The IC50 was 21.9 nM.

And the IC50 [5]?
Its IC50 is greater than 2000 nM.

What about the IC50 (IMR-32) of the same compound?
Its IC50 is 56.2 nM.

With `CC(C)[C@@H](CS(=O)(=O)C(C)C)N1C(=O)[C@@](C)(CC(=O)O)C[C@H](c2cccc(Cl)c2)[C@H]1c1ccc(Cl)cc1` [NAVTEMADLIN] as the compound, how does the bioavailability [6] read?
The bioavailability was greater than 42%.

What about the bioavailability [7] of the same compound?
The bioavailability was greater than 43%.

And the bioavailability [8]?
Its bioavailability is 18%.

What about the bioavailability [9] of the same compound?
Its bioavailability is greater than 44%.

Which inhibition in vivo at 50 mg/kg (SJSA-1) does the source give for `CCOc1cc(C(C)(C)C)ccc1C1=N[C@@](C)(c2ccc(Cl)cc2)[C@@](C)(c2ccc(Cl)cc2)N1C(=O)N1CCN(CCCS(C)(=O)=O)CC1` [RO-5045337] here?
Its inhibition in vivo at 50 mg/kg is 74%.

What about the inhibition in vivo at 50 mg/kg (animal or person) of the same compound?
Its inhibition in vivo at 50 mg/kg is 69%.
